Measured values published in ChEMBL document CHEMBL5291721, “A preclinical secondary pharmacology resource illuminates target-adverse drug reaction associations of marketed drugs” (Nat Commun, 2023).

Columns and labels:
Thromboxane A2 receptor = molecular target: T1, Thromboxane A2 receptor (Homo sapiens, UniProt P21731); type: functional, cell-based
T1 sequence (P21731 whole entry): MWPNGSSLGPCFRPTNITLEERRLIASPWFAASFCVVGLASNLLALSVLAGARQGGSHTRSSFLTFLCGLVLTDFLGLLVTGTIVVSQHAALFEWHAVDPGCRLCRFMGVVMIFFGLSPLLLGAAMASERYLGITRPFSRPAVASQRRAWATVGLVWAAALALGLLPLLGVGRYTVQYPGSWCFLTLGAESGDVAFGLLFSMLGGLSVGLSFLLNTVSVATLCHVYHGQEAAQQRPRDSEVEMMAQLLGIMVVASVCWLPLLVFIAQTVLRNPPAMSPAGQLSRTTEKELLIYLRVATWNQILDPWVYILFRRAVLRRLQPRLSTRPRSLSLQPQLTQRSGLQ

Histamine H3 receptor = Histamine H3 receptor (Homo sapiens, UniProt Q9Y5N1)
Sequence of Histamine H3 receptor (Q9Y5N1 whole entry): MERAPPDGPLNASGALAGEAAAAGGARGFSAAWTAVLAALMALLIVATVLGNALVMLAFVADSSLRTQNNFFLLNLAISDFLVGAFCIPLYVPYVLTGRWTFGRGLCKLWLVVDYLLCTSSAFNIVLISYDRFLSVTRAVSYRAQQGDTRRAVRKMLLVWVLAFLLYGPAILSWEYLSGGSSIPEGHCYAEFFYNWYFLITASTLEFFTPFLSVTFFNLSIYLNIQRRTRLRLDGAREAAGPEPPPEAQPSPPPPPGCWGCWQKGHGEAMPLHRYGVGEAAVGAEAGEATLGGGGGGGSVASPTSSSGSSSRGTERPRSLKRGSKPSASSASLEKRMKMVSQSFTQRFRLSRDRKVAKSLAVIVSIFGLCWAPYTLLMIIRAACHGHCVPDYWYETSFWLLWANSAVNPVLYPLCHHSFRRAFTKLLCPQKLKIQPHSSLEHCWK

Progesterone receptor = molecular target: T2, Progesterone receptor (Homo sapiens, UniProt P06401)
T2 sequence (P06401 whole entry): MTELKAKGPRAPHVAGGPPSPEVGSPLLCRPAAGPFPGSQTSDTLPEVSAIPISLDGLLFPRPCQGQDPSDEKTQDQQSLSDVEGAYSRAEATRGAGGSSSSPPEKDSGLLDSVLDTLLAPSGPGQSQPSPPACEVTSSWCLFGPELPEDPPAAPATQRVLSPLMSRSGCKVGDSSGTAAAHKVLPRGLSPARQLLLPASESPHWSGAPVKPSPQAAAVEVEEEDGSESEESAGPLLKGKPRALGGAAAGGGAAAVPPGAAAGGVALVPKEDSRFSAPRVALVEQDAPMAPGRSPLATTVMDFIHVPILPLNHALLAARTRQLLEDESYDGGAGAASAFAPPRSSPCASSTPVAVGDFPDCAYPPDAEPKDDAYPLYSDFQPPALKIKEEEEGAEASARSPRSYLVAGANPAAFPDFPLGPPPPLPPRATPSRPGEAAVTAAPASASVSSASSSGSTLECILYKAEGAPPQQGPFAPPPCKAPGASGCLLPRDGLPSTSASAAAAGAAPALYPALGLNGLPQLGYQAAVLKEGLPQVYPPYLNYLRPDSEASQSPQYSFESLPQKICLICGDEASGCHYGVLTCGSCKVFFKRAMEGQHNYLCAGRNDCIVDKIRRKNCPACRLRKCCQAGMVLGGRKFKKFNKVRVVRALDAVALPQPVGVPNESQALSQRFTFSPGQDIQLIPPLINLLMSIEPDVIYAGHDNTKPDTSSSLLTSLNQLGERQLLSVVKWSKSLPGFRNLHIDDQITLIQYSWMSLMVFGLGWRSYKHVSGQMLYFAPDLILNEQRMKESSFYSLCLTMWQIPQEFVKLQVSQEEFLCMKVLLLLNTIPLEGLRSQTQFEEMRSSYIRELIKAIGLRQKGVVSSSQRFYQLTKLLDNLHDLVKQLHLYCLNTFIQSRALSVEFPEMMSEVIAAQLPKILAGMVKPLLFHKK

[1] = molecular target: Voltage-gated inwardly rectifying potassium channel KCNH2 (Homo sapiens, UniProt Q12809); type: functional
Sequence of Voltage-gated inwardly rectifying potassium channel KCNH2 (Q12809 whole entry): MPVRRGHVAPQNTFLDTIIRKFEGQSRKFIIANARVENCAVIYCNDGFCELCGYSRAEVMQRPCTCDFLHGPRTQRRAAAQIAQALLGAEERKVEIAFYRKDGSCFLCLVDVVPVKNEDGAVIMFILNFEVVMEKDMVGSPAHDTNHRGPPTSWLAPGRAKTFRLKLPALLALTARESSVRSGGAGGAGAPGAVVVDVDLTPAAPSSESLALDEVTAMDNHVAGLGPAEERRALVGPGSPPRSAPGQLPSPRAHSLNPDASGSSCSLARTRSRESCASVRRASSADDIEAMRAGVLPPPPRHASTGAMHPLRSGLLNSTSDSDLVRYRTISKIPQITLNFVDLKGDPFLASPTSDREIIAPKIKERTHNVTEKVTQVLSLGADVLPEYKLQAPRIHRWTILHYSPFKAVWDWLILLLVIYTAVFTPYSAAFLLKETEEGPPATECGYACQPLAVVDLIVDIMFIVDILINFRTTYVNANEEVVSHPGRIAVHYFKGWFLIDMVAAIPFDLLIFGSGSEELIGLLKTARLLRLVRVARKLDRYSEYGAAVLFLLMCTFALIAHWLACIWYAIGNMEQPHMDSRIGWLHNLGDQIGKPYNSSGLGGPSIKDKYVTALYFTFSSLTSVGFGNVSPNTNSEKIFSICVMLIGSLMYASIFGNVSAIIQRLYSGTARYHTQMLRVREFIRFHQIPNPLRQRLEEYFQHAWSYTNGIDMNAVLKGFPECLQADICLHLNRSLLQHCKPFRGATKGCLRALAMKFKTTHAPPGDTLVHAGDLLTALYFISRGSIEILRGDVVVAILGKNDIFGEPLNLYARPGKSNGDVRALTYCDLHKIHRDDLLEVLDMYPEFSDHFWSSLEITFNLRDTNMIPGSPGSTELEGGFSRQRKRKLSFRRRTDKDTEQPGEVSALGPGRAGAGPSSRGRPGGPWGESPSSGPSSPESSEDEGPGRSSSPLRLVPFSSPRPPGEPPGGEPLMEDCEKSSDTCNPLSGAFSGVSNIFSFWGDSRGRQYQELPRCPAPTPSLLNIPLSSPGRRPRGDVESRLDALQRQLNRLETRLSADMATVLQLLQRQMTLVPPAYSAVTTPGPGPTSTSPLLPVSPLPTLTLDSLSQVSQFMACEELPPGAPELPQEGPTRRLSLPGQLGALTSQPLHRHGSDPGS

[2] = molecular target: T3, Alpha-2A adrenergic receptor (Homo sapiens, UniProt P08913)
T3 sequence (P08913 whole entry): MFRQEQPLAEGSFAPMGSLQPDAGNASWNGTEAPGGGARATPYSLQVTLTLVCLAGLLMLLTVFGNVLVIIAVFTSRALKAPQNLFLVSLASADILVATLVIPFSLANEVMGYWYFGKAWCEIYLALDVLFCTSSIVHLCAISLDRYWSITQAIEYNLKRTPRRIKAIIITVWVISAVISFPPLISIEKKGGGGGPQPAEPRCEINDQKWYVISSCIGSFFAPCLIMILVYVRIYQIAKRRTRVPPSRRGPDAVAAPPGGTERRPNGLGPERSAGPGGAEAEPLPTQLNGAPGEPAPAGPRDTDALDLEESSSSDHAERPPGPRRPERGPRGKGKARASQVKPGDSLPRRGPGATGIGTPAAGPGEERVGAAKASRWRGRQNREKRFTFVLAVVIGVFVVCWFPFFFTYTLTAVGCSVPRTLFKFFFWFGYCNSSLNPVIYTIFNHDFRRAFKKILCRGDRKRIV

[3] = molecular target: T4, Alpha-1A adrenergic receptor (Homo sapiens, UniProt P35348); type: functional, cell-based
T4 sequence (P35348 whole entry): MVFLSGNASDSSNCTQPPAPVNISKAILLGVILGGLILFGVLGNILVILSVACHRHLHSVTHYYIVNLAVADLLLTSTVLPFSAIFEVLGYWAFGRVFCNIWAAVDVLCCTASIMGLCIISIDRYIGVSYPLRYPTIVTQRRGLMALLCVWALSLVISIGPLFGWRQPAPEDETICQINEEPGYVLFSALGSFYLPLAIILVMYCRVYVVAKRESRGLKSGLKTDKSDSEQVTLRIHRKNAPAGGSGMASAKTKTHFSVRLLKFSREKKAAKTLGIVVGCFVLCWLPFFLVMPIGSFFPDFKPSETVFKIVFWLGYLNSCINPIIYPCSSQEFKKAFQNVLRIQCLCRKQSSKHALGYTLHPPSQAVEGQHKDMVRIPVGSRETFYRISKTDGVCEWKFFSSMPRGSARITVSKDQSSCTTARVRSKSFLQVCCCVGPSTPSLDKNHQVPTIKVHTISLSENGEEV

Prothrombin = Prothrombin (Homo sapiens, UniProt P00734); type: functional
D(1A) dopamine receptor = D(1A) dopamine receptor (Homo sapiens, UniProt P21728)
D(3) dopamine receptor = D(3) dopamine receptor (Homo sapiens, UniProt P35462)
Sequence of D(3) dopamine receptor (P35462 whole entry): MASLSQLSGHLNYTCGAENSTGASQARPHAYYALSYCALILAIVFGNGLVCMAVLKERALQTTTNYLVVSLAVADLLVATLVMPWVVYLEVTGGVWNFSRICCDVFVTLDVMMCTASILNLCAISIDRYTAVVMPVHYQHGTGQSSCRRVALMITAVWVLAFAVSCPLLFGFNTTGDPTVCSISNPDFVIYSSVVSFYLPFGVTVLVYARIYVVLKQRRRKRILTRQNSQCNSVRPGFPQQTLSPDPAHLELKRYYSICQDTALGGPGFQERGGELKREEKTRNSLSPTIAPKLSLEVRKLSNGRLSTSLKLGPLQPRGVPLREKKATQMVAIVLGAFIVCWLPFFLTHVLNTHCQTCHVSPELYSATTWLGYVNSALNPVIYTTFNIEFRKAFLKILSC

[4] = molecular target: cGMP-inhibited 3',5'-cyclic phosphodiesterase 3A (Homo sapiens, UniProt Q14432); type: functional
Sequence of cGMP-inhibited 3',5'-cyclic phosphodiesterase 3A (Q14432 whole entry): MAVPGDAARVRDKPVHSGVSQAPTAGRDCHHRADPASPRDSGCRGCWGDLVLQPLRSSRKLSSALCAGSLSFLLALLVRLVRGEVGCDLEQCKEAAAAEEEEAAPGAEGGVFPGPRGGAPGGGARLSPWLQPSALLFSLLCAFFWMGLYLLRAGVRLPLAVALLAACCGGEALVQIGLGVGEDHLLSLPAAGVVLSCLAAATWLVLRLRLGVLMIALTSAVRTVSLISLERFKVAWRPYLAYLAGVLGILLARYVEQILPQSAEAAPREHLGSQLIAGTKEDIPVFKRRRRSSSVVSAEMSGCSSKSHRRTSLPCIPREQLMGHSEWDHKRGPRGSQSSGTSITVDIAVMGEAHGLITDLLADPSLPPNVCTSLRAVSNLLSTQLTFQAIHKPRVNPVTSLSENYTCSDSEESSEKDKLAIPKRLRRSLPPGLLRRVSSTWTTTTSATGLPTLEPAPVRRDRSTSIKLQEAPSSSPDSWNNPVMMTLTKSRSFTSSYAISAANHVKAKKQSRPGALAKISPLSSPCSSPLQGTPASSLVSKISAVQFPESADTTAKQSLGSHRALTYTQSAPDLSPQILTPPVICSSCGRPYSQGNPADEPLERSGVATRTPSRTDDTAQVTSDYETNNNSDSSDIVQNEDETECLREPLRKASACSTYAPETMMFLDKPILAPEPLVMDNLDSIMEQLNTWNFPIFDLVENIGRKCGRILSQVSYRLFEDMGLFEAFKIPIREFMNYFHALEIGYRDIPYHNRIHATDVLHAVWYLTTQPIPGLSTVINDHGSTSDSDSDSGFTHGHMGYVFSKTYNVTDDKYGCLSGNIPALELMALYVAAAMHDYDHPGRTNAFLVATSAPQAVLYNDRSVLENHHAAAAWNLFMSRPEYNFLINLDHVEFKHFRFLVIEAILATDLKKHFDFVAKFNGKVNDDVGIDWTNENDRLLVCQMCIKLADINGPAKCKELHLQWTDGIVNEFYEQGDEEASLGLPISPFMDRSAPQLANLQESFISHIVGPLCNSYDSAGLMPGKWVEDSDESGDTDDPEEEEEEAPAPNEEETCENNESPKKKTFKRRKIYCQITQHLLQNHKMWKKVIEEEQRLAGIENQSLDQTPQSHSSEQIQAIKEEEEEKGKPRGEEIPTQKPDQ

[5] = molecular target: 5-hydroxytryptamine receptor 2B (Homo sapiens, UniProt P41595); type: functional, cell-based
Mu-type opioid receptor = Mu-type opioid receptor (Homo sapiens, UniProt P35372)
[6] = molecular target: Prostaglandin G/H synthase 1 (Homo sapiens, UniProt P23219); type: functional
Sequence of Prostaglandin G/H synthase 1 (P23219 whole entry): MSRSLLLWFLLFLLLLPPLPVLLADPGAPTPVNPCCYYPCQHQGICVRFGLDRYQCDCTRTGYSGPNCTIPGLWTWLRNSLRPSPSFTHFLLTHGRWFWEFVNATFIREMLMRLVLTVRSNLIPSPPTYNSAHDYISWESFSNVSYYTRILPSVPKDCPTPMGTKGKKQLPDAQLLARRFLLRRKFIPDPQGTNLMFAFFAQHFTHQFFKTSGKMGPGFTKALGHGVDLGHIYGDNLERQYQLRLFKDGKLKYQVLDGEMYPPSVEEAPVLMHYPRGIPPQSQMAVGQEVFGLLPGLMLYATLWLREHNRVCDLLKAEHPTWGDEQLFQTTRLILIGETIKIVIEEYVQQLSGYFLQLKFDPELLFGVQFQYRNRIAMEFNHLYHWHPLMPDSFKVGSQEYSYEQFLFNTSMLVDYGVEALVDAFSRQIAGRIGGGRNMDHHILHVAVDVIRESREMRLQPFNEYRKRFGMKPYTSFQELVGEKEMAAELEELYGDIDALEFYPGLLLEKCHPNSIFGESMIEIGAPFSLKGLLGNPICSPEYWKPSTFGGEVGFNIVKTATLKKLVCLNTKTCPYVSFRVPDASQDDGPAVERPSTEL

[7] = molecular target: Sodium-dependent noradrenaline transporter (Homo sapiens, UniProt P23975)
Sequence of Sodium-dependent noradrenaline transporter (P23975 whole entry): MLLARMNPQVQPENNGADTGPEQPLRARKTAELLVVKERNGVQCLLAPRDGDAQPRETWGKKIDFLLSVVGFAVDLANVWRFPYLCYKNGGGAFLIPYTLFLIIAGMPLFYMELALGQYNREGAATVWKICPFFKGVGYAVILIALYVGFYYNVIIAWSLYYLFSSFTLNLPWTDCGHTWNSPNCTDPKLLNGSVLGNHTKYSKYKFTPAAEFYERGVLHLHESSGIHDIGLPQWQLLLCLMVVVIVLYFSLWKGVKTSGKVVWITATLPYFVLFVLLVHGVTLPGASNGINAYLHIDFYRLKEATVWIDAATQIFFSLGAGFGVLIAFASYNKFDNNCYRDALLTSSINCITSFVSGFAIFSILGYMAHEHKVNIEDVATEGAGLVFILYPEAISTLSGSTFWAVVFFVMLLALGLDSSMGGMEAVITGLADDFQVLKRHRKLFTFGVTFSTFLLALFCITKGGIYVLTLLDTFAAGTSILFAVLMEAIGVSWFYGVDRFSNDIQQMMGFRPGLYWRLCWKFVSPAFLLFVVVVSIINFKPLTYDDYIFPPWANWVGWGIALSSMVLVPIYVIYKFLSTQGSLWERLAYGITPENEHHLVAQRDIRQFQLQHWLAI

[8] = molecular target: Sodium-dependent dopamine transporter (Homo sapiens, UniProt Q01959)
Sequence of Sodium-dependent dopamine transporter (Q01959 whole entry): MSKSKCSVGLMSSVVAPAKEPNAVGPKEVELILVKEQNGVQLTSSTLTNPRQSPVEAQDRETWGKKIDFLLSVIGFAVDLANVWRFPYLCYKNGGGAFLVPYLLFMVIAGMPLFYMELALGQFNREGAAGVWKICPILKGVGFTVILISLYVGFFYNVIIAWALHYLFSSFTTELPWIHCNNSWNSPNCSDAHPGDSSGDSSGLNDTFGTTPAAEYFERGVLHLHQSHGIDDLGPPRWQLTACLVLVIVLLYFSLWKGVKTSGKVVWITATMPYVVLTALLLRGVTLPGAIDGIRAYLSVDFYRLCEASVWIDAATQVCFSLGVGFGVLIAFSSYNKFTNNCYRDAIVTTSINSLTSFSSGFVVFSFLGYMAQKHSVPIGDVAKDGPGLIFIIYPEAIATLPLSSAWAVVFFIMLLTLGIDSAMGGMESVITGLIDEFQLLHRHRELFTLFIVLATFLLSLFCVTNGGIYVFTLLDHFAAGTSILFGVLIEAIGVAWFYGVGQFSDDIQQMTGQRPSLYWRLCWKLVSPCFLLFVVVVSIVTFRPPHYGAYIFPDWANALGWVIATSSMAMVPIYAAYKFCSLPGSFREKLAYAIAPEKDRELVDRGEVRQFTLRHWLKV
Note: assay procedure not described here.

Row | SMILES | AC50 (Thromboxane A2 receptor) [µM] | AC50 (Histamine H3 receptor) [µM] | AC50 (Progesterone receptor) [µM] | AC50 [1] [µM] | AC50 [2] [µM] | AC50 [3] [µM] | AC50 (Prothrombin) [µM] | AC50 (D(1A) dopamine receptor) [µM] | AC50 (D(3) dopamine receptor) [µM] | AC50 [4] [µM] | AC50 [5] [µM] | AC50 (Mu-type opioid receptor) [µM] | AC50 [6] [µM] | AC50 [7] [µM] | AC50 [8] [µM]
1 | CC1(C)O[C@@H]2C[C@H]3[C@@H]4C[C@H](F)C5=CC(=O)C=C[C@]5(C)[C@@]4(F)[C@@H](O)C[C@]3(C)[C@]2(C(=O)CO)O1 [FLUOCINOLONE ACETONIDE] | > 30 | > 30 | 0.0107 | > 30 | > 30 | > 30 | > 30 | > 30 | > 30 | > 30 | > 30 | > 30 | > 30 | > 30 | > 30
2 | O=C(O)P(=O)(O)O [FOSCARNET] | > 30 | > 30 | > 30 | > 30 | > 30 | > 30 | > 30 | > 30 | > 30 | > 30 | > 30 | > 30 | > 30 | > 30 | > 30
3 | Cc1ccc(C)c(OCCCC(C)(C)C(=O)O)c1 [GEMFIBROZIL] | > 30 | > 30 | > 30 | > 30 | > 30 | > 30 | > 30 | > 30 | > 30 | > 30 | > 30 | > 30 | > 30 | > 30 | > 30
4 | COc1ccccc1OC1(C)OC(=O)c2ccccc2O1 (stereo not given) [GUAIMESAL] | > 30 | > 30 | > 30 | > 30 | > 30 | > 30 | > 30 | > 30 | > 30 | > 30 | > 30 | > 30 | > 30 | > 30 | > 30
5 | CCCCC(CC)CN1CN(CC(CC)CCCC)CC(C)(N)C1 (stereo not given) [HEXETIDINE] | > 30 | > 10 | > 30 | 0.75 | 14.4 | > 30 | > 30 | > 30 | 4.84 | > 30 | > 30 | 4.86 | > 30 | 7.93 | 4.6
6 | Cc1cc(=O)oc2cc(O)ccc12 [HYMECROMONE] | > 30 | > 30 | > 30 | > 30 | > 30 | > 30 | > 3 | > 30 | > 30 | > 30 | > 30 | > 30 | > 30 | > 30 | > 30
7 | COc1cc(C(C)=O)ccc1OCCCN1CCC(c2noc3cc(F)ccc23)CC1 [ILOPERIDONE] | > 10 | > 30 | > 30 | 0.15 | 0.06 | > 10 | > 30 | 0.01 | 0.0099 | > 30 | > 30 | 4.11 | > 30 | 1.19 | 5.94
8 | COc1c2occc2c(OC)c2c(=O)cc(C)oc12 [KHELLIN] | > 30 | > 30 | > 30 | > 30 | > 30 | > 30 | > 30 | > 30 | > 30 | > 30 | > 30 | > 30 | > 30 | > 30 | > 30
9 | CC(C)[C@@H]1CC[C@@H](C)C[C@H]1O [LEVOMENTHOL] | > 30 | > 30 | > 30 | > 30 | > 30 | > 30 | > 30 | > 30 | > 30 | > 30 | > 30 | > 30 | > 30 | > 30 | > 30
10 | COC(=O)[C@@H](N)Cc1ccc(O)c(O)c1 [MELEVODOPA] | > 30 | > 30 | > 30 | > 30 | 20.3 | > 30 | > 30 | > 30 | > 30 | > 30 | > 30 | > 30 | > 30 | > 30 | > 30
11 | C[N+]1(C)CCCC(OC(=O)C(O)(c2ccccc2)c2ccccc2)C1 (stereo not given) [MEPENZOLATE] | > 30 | > 30 | > 30 | 13 | > 30 | > 30 | > 30 | > 30 | > 30 | > 30 | > 30 | > 30 | > 30 | > 30 | > 30
12 | C=N[C@@H](C(=O)N[C@@H]1C(=O)N2[C@@H]1SC(C)(C)[C@@H]2C(=O)O)c1ccccc1 [METAMPICILLIN] | > 30 | > 30 | > 30 | > 30 | > 30 | > 30 | > 30 | > 30 | > 30 | > 30 | > 30 | > 30 | 11.8 | > 30 | > 30
13 | O=C(NNCS(=O)(=O)O)c1ccncc1 [METHANIAZIDE] | > 30 | > 30 | > 30 | > 30 | > 30 | > 30 | > 30 | > 30 | > 30 | > 30 | > 30 | > 30 | > 30 | > 30 | > 30
